# Laboratory results: US20200405696A1, “INHIBITORS OF INDOLEAMINE 2,3-DIOXYGENASE AND/OR TRYPTOPHAN 2,3-DIOXYGENASE” (IDORSIA PHARMACEUTICALS LTD, priority 2018, published 2020)
# Experiments:
# [1] = biological target: T1, Recombinant full-length human IDO1 (Homo sapiens, UniProt P14902); experiment: IDO1 enzymatic assay (NFK quantified by LCMS); assay type: biochemical; conditions: 2 nM enzyme, 5 μM L-tryptophan, pH6.5, 30 minutes pre-incubation at RT; mean values when measured multiple times; read-out: hIDO activity (IC50 in nM)
# T1 construct: Recombinant full-length human IDO1 with a N-terminal hexahistidine tag; hexahistidine (His6) (N); made in house; host or cells: E. coli
# Outline: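 His-tagged human IDO1 (2 nM) in pH 6.5 phosphate buffer with ascorbate, methylene blue and catalase was preincubated with compound (10 μM–0.5 nM, 0.6% DMSO) for 30 min at RT. The reaction then ran with 5 μM L-Trp for 30 min. NFK was measured by LCMS against a d5-Trp standard, and IC50 was obtained by four-parameter fit.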
# [2] = biological target: T2, Recombinant human TDO comprising amino acids 19-407 (Homo sapiens, UniProt P48775); experiment: TDO2 enzymatic assay (NFK quantified by LCMS); assay type: biochemical; conditions: 15 nM enzyme, 200 μM L-tryptophan, pH7, 30 minutes pre-incubation at RT; mean values when measured multiple times; read-out: hTDO activity (IC50 in nM)
# T2 construct: Recombinant human TDO comprising amino acids 19-407 with a N-terminal hexahistidine tag; hexahistidine (His6) (N); made in house; host or cells: E. coli
# Outline: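 NFK formed over 30 min at RT from 200 μM L-tryptophan was measured by LCMS, normalized to d5-tryptophan, after compound (0.5 nM–10 μM, duplicates, 0.6% DMSO) was preincubated 30 min with 15 nM recombinant His-tagged TDO 19-407 in phosphate buffer pH 7. IC50 from four-parameter logistic fit; repeats averaged.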
# T1 sequence (P14902 whole entry): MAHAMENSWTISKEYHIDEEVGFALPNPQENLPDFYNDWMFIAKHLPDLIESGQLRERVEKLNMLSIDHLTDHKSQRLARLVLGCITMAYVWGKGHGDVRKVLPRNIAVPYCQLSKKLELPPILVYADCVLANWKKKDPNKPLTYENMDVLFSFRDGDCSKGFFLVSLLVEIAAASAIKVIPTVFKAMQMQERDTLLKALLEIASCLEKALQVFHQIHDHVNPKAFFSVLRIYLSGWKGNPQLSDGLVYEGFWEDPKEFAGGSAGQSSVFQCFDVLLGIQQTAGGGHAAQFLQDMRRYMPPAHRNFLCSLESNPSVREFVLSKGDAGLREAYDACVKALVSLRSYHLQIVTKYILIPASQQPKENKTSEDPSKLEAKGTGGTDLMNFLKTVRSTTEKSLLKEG
# T2 sequence (P48775 19-406 limits assumed): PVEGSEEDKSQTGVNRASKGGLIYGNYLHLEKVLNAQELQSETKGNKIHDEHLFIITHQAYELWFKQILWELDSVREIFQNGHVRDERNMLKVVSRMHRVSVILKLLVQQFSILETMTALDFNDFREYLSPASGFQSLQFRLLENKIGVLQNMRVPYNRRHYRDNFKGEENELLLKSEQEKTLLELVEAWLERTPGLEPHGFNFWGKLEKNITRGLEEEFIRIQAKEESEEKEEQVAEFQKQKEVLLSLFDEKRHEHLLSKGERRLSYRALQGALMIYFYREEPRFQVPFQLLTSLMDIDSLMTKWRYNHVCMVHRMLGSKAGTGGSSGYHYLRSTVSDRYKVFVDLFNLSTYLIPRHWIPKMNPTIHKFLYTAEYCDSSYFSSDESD
SMILES,IC50 [1] [nM],IC50 [2] [nM]
"CCOc1ccc(-n2nnc(C(O)c3c(C4CC4)sc4cncn34)c2C)cc1Cl (racemic) [Example 296, rac-[1-(3-Chloro-4-ethoxy-phenyl)-5-methyl-1H-[1,2,3]triazol-4-yl]-(2-cyclopropyl-imidazo[5,1-b]thiazol-3-yl)-methanol]",14.1,> 10200
"COC(=O)c1ccc(Cn2cc(C(O)c3c(C4CC4)sc4cncn34)nn2)cc1 (racemic) [Example 297, rac-4-{4-[(2-Cyclopropyl-imidazo[5,1-b]thiazol-3-yl)-hydroxy-methyl]-[1,2,3]triazol-1-ylmethyl}-benzoic acid methyl ester]",16,> 10200
"Oc1cccc(Cn2cc(C(O)c3c(C4CC4)sc4cncn34)nn2)c1 (racemic) [Example 298, rac-3-{4-[(2-Cyclopropyl-imidazo[5,1-b]thiazol-3-yl)-hydroxy-methyl]-[1,2,3]triazol-1-ylmethyl}-phenol]",23.3,> 10200
"C=C(C)c1sc2cncn2c1C(O)c1cn(-c2ccc(OCC3(F)COC3)c(Cl)c2)nn1 (racemic) [Example 299, rac-{1-[3-Chloro-4-(3-fluoro-oxetan-3-ylmethoxy)-phenyl]-1H-[1,2,3]triazol-4-yl}-(2-isopropenyl-imidazo[5,1-b]thiazol-3-yl)-methanol]",34.8,> 10200
"COc1cc(F)c(-n2cc(C(O)c3c(C4CC4)sc4cncn34)nn2)cc1Cl (racemic) [Example 300, rac-[1-(5-Chloro-2-fluoro-4-methoxy-phenyl)-1H-[1,2,3]triazol-4-yl]-(2-cyclopropyl-imidazo[5,1-b]thiazol-3-yl)-methanol]",6.66,> 10200
"C=C(C)c1sc2cncn2c1C(O)c1cn(-c2ccc(OCCCO)c(Cl)c2)nn1 (racemic) [Example 301, rac-3-(2-Chloro-4-{4-[hydroxy-(2-isopropenyl-imidazo[5,1-b]thiazol-3-yl)-methyl]-[1,2,3]triazol-1-yl}-phenoxy)-propan-1-ol]",25.1,> 10200
"CCc1sc2cncn2c1C(O)c1cn(-c2ccc(OCCC(C)(C)O)c(Cl)c2)nn1 (racemic) [Example 302, rac-4-(2-Chloro-4-{4-[(2-ethyl-imidazo[5,1-b]thiazol-3-yl)-hydroxy-methyl]-[1,2,3]triazol-1-yl}-phenoxy)-2-methyl-butan-2-ol]",6.88,> 10200
"CC(C)(O)CCOc1ccc(-n2cc(C(O)c3c(C4(C)CC4)sc4cncn34)nn2)cc1Cl (racemic) [Example 303, rac-4-[2-Chloro-4-(4-{hydroxy-[2-(1-methyl-cyclopropyl)-imidazo[5,1-b]thiazol-3-yl]-methyl}-[1,2,3]triazol-1-yl)-phenoxy]-2-methyl-butan-2-ol]",23.6,> 10200
"Oc1ccc(Cn2cc(C(O)c3c(C4CC4)sc4cncn34)nn2)cc1 (racemic) [Example 304, rac-4-{4-[(2-Cyclopropyl-imidazo[5,1-b]thiazol-3-yl)-hydroxy-methyl]-[1,2,3]triazol-1-ylmethyl}-phenol]",52.2,> 10200
"Oc1ccccc1Cn1cc(C(O)c2c(C3CC3)sc3cncn23)nn1 (racemic) [Example 305, rac-2-{4-[(2-Cyclopropyl-imidazo[5,1-b]thiazol-3-yl)-hydroxy-methyl]-[1,2,3]triazol-1-ylmethyl}-phenol]",71.3,> 10200
"COc1ccc(-n2cc(C(O)c3c(C4CC4)sc4cncn34)nn2)c(C)c1 (racemic) [Example 306, rac-(2-Cyclopropyl-imidazo[5,1-b]thiazol-3-yl)-[1-(4-methoxy-2-methyl-phenyl)-1H-[1,2,3]triazol-4-yl]-methanol]",17.9,> 10200
"CC(C)(O)CCOc1ccc(-n2cc(C(O)c3c(C(C)(F)F)sc4cncn34)nn2)cc1Cl (racemic) [Example 307, rac-4-[2-Chloro-4-(4-{[2-(1,1-difluoro-ethyl)-imidazo[5,1-b]thiazol-3-yl]-hydroxy-methyl}-[1,2,3]triazol-1-yl)-phenoxy]-2-methyl-butan-2-ol]",13.9,> 10200
"OCc1ccc(-n2cc(C(O)c3c(C4CC4)sc4cncn34)nn2)cc1 (racemic) [Example 310, rac-(2-Cyclopropyl-imidazo[5,1-b]thiazol-3-yl)-[1-(4-hydroxymethyl-phenyl)-1H-[1,2,3]triazol-4-yl]-methanol]",50.1,> 10200
"COc1cc(C)c(-n2cc(C(O)c3c(C4CC4)sc4cncn34)nn2)c(C)c1 (racemic) [Example 311, rac-(2-Cyclopropyl-imidazo[5,1-b]thiazol-3-yl)-[1-(4-methoxy-2,6-dimethyl-phenyl)-1H-[1,2,3]triazol-4-yl]-methanol]",137,> 10200
"OC(c1cn(-c2ccc(OCCOCC(F)(F)F)cc2)nn1)c1c(C2CC2)sc2cncn12 (racemic) [Example 312, rac-(2-Cyclopropyl-imidazo[5,1-b]thiazol-3-yl)-(1-{4-[2-(2,2,2-trifluoro-ethoxy)-ethoxy]-phenyl}-1H-[1,2,3]triazol-4-yl)-methanol]",29.4,> 10200
"CC1(c2sc3cncn3c2C(O)c2cn(-c3ccc(OCCCO)c(Cl)c3)nn2)CC1 (racemic) [Example 313, rac-3-[2-Chloro-4-(4-{hydroxy-[2-(1-methyl-cyclopropyl)-imidazo[5,1-b]thiazol-3-yl]-methyl}-[1,2,3]triazol-1-yl)-phenoxy]-propan-1-ol]",13.7,> 10200
"CC(F)(F)c1sc2cncn2c1C(O)c1cn(-c2ccc(OCCCO)c(Cl)c2)nn1 (racemic) [Example 314, rac-3-[2-Chloro-4-(4-{[2-(1,1-difluoro-ethyl)-imidazo[5,1-b]thiazol-3-yl]-hydroxy-methyl}-[1,2,3]triazol-1-yl)-phenoxy]-propan-1-ol]",10.2,> 10200
"CC1(c2sc3cncn3c2C(O)c2cn(-c3ccc(OCC4(F)COC4)c(Cl)c3)nn2)CC1 (racemic) [Example 315, rac-{1-[3-Chloro-4-(3-fluoro-oxetan-3-ylmethoxy)-phenyl]-1H-[1,2,3]triazol-4-yl}-[2-(1-methyl-cyclopropyl)-imidazo[5,1-b]thiazol-3-yl]-methanol]",19.5,> 10200
"CC(F)(F)c1sc2cncn2c1C(O)c1cn(-c2ccc(OCC3(F)COC3)c(Cl)c2)nn1 (racemic) [Example 316, rac-{1-[3-Chloro-4-(3-fluoro-oxetan-3-ylmethoxy)-phenyl]-1H-[1,2,3]triazol-4-yl}-[2-(1,1-difluoro-ethyl)-imidazo[5,1-b]thiazol-3-yl]-methanol]",13,> 10200
"CCc1sc2cncn2c1C(O)c1cn(-c2ccc(OCC3(F)COC3)c(Cl)c2)nn1 (racemic) [Example 317, rac-{1-[3-Chloro-4-(3-fluoro-oxetan-3-ylmethoxy)-phenyl]-1H-[1,2,3]triazol-4-yl}-(2-ethyl-imidazo[5,1-b]thiazol-3-yl)-methanol]",7.18,> 10200
"COc1cc(F)c(-n2cc(C(O)c3c(C4CC4)sc4cncn34)nn2)cc1F (racemic) [Example 318, rac-(2-Cyclopropyl-imidazo[5,1-b]thiazol-3-yl)-[1-(2,5-difluoro-4-methoxy-phenyl)-1H-[1,2,3]triazol-4-yl]-methanol]",2.99,> 10200
"CCc1sc2cncn2c1C(O)c1cn(-c2cc(Cl)c(OC)cc2F)nn1 (racemic) [Example 319, rac-[1-(5-Chloro-2-fluoro-4-methoxy-phenyl)-1H-[1,2,3]triazol-4-yl]-(2-ethyl-imidazo[5,1-b]thiazol-3-yl)-methanol]",3.18,4430
"CCc1sc2cncn2c1C(O)c1cn(-c2ccc(OCCCO)c(Cl)c2)nn1 (racemic) [Example 320, rac-3-(2-Chloro-4-{4-[(2-ethyl-imidazo[5,1-b]thiazol-3-yl)-hydroxy-methyl]-[1,2,3]triazol-1-yl}-phenoxy)-propan-1-ol]",2.1,7780
"CCc1sc2cncn2c1C(O)c1cn(-c2cc(F)c(OC)cc2F)nn1 (racemic) [Example 321, rac-[1-(2,5-Difluoro-4-methoxy-phenyl)-1H-[1,2,3]triazol-4-yl]-(2-ethyl-imidazo[5,1-b]thiazol-3-yl)-methanol]",2.13,3680
"CCc1sc2cncn2c1C(O)c1cn(-c2ccc(O)c(Cl)c2)nn1 (racemic) [Example 323, rac-2-Chloro-4-{4-[(2-ethyl-imidazo[5,1-b]thiazol-3-yl)-hydroxy-methyl]-[1,2,3]triazol-1-yl}-phenol]",3.82,1210
"CC1(c2sc3cncn3c2C(O)c2cn(-c3ccc(O)c(Cl)c3)nn2)CC1 (racemic) [Example 324, rac-2-Chloro-4-(4-{hydroxy-[2-(1-methyl-cyclopropyl)-imidazo[5,1-b]thiazol-3-yl]-methyl}-[1,2,3]triazol-1-yl)-phenol]",12.1,9820
